The target of this assay is T1, CDK4/Cyclin D1 (Homo sapiens, UniProt P11802).
T1 construct: made in house; host or cells: SF21 (Spodoptera frugiperda) insect cells, baculovirus co-infection, vector pVL1393
Put plainly: in vitro kinase assay (Scintillation Proximity Assay), incorporation of [γ-33-P]-ATP into GST-Retinoblastoma. Type of assay: biochemical. The conditions noted are these: CDK4/Cyclin D1 partially-purified enzyme, GST-Rb substrate, 0.2 μM ATP, room temperature 60 minutes; read-out: CDK4 inhibitory activity IC50. The protocol:
The compounds were tested in an in vitro kinase assay in 96 well format using Scintillation Proximity Assay (SPA-obtained from Amersham) for measuring incorporation of [γ-33-P]-Adenosine Triphosphate into a test substrate (GST-Retinoblastoma). In each well was placed the compound to be tested (diluted in DMSO and water to correct concentrations) and in control wells either p16 as an inhibitor control or DMSO as a positive control.
Approximately 0.5 μl of CDK4/Cyclin D1 partially-purified enzyme (amount dependent on enzyme activity) diluted in 25 μl incubation buffer was added to each well then 20 μl of GST-Rb/ATP/ATP33 mixture (containing 0.5 μg GST-Rb and 0.2 μM ATP and 0.14 μCi [γ-33-P]-Adenosine Triphosphate), and the resulting mixture shaken gently, then incubated at room temperature for 60 minutes. To each well was then added 150 μL stop solution containing (0.8 mg/well of Protein A-PVT SPA bead (Amersham)), 20 pM/well of Anti-Glutathione Transferase, Rabbit IgG (obtained from Molecular Probes), 61 mM EDTA and 50 mM HEPES pH 7.5 containing 0.05% sodium azide.
The plates were sealed with Topseal-S plate sealers, left for two hours then spun at 2500 rpm, 1124×g., for 5 minutes. The plates were read on a Topcount for 30 seconds per well. […]
(In general: SPA uses beads or plates that emit light when radiolabelled molecules are held near them.)

The values below come from patent US6670368B1, “Pyrimidine compounds with pharmaceutical activity” (AstraZeneca AB, priority 1999, dated 2003).

By IC50 is commonly meant the concentration that inhibits the measured activity by half.

T1 sequence (P11802 whole entry): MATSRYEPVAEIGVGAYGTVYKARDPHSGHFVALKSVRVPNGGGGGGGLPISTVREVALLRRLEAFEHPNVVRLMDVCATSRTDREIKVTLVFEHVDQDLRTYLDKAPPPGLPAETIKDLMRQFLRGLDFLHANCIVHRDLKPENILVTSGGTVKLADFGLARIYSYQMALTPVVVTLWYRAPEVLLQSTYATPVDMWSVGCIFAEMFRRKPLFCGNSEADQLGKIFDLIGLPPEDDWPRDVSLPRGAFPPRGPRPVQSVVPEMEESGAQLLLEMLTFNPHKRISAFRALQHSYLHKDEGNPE
T1 sequence (P24385 whole entry partner): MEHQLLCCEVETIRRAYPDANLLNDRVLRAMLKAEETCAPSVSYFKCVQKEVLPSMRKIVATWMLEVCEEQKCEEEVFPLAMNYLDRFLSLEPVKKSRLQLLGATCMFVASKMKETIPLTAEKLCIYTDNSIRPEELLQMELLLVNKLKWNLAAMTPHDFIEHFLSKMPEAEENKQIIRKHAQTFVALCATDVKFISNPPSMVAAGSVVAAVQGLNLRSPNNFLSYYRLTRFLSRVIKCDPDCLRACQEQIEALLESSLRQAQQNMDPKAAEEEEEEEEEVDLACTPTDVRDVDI

`Cc1ccc(C)c(Oc2cc(Nc3ccc(OCC(O)CN(C)C)cc3)ncn2)c1` (stereo not shown) [Example 6]: the IC50 was 1200 nM.
